# Reference: patent US20080199899A1, “Method For Screening Modulators of Mitochondrial Functioning and New Modulators Obtained” (priority 2002, published 2008)
# Non-standard residues stand in square brackets, D forms with d. Residues, ends and D or L forms follow the SMILES beside them. Phe(ol) = N[C@H](CO)Cc1ccccc1; Aib = CC(C)(N)C(=O)O
# How the values were obtained:
# [1] = test system: purified mouse liver mitochondria; assay: Real-time flow cytometry (FCM) analysis of mitochondrial morphology (FSC/SSC) on isolated mitochondria; format: biochemical; conditions: for changes of mitochondrial size (FSC) and structure (SSC) (in words): isolated mitochondria, 1-30 μM Ca2+, 20 μM CCCP, alamethicin 5 μg/ml; for induction of MMP / activity on isolated mitochondria (in words): real time test on isolated mitochondria
# Protocol: (§1) Liver mitochondria were isolated from 3-4 weeks old Balb-c mice (IFFA CREDO, Saint Germain sur l'Arbresle, France). Animals were fasted overnight before being killed by […] dislocation. Liver mitochondria were prepared as described (Jacotot, 2000). All steps were carried out at 4° C. Finally, the organelles were resuspended in ‘swelling buffer’, composed by 200 mM sucrose, 5 mM succinate, 10 mM Tris-MOPS (pH 7.4), 1 mM H3PO4, 2 μM Rotenone, and 10 μM EGTA at pH=7.4. Spectrophotometric and flow cytometric analyses were performed in this buffer. The protein content of isolated mitochondria was determined by the Bradford assay.
# Fluorescence-activated flow cytometry was performed using a 3-color FACSCalibur cytometer equipped with a 15 mW air-cooled 488 nm argon laser (Becton Dickinson, San Jose, Calif.). Mitochondria analyses were performed after appropriate settings of the Forward angle light scatter (FSC)—Side angle light scatter (SSC) detectors (see FIG. 1). Discrimination between mitochondria and cellular debris and noise background was performed by an appropriate gating on FSC-SSC scatter plots (FIG. 1) (Radcliff G, Jaroszeski M J 1998 Methods Mol Biol 91:1-24 Basics of flow cytometry). Systematic confirmation of the validity of this gating was obtained by a labeling of mitochondria with the ΔΨm-insensitive mitochondrial dye MitoTracker® Green (MTG, Molecular Probes, Eugene, Oreg.) (Jacotot et al., 2001). Briefly mitochondria (1.5 μg proteins) were respuspended in 400 μl swelling buffer containing 200 nM MTG for 15 min at room temperature. The organelles were immediately analyzed on the cytometer with the CellQuest Pro software (Becton Dickinson). MTG fluorescence was collected in the FL-1 channel (530+/−15 nm) and analyzed in logarithmic amplifier mode, using the PMT at a voltage adjusted to 907. Data from 20,000 gated mitochondria were recorded and analyzed.
# Mitochondrial size was analyzed through the light scattered by the organelles at low angle using the Forward scatter (FSC) photodiode. Signals were collected using the E-00 setting, with a logarithmic amplification gain of 5.41. Mitochondrial structure was evaluated by the light scattered in the perpendicular direction. It was assessed by the sensitive Side scatter (SSC) photomultiplier tube (PMT), using a voltage of 581, and a linear amplification gain adjusted to 4.27. The morphological changes related to swelling of purified mitochondria were monitored by the increase in mitochondrial size (FSC) and the decrease in the organelle structure (SSC) using the CellQuest Pro software. The FSC/SSC ratio was calculated by the FCS Assistant software and permitted to integrate both variations in size and structure into only one parameter.
# Real-time experiments were performed on mitochondrial samples containing 1.5 μg proteins in 800 μl (=2 ng/µl) of swelling buffer. Samples were acquired on the flow cytometer for 5 minutes to record basal morphological criteria. Then reagents were added to samples, and variations in light scattering were recorded for the following 15 minutes. The sample flow rate was settled to 12 μl+/−3 μl/min for both fixed- and real-time analyses.
# Swelling curves were obtained after plotting FSC or SSC parameters versus time, and division of the time scale into discrete periods of 1 minute. The mean FSC and SSC of mitochondria from every period were calculated by the CellQuest Pro software, and were exported into the Microsoft Excel software.
# [2] = test system: purified mouse liver mitochondria; assay: Real-time FCM analysis of mitochondrial transmembrane potential (ΔΨm) with JC-1; format: biochemical; conditions: JC-1 loaded mitochondria; 20 μM mClCCP, 30 μM Ca2+ or 5 μM Alamethicin
# Protocol: as §1
# Mitochondrial transmembrane potential (ΔΨm) was assessed by 5,5′,6,6′,-tetracholoro-1,1,3,3′-tetraethylbenzimidazolyl carbocyanine iodide (JC-1, Molecular Probes) incorporation. This potential-sensitive cationic dye accumulates in the mitochdndrial matrix according to the Nernst equation (Reers et al., 1991). JC-1 green fluorescence, associated with JC-1 monomers was collected in the FL-1 channel. JC-1 orange fluorescence, associated with the formation of J-aggregates was collected in the FL-2 channel (585+/−21 nm) (Reers et al, 1991). Both fluorescences were recorded in logarithmic amplifier mode, using the PMT at a voltage adjusted to 907 and 622 respectively. Spectral overlap was avoided by adjusting compensation network as follows: FL1-18.5% FL2 and FL2-25.4% FL1. The JC-1 orange/green fluorescence ratio was calculated with the FCS Assistant software.
# Real-time monitoring of ΔΨm was performed on mitochondrial samples containing 1.5 μg proteins in 400 μl of swelling buffer. […] Then drugs were added to the sample, and ΔΨm variations were recorded for the following 16 minutes. Depolarization curves were drawn as previously indicated for swelling curves; the time scale was divided into discrete periods of 1 minute and the mean of JC-1 orange and JC-1 green fluorescence of the corresponding mitochondrial subsets was calculated by the CellQuest Pro software and exported into the Microsoft Excel software.
# [3] = test system: purified mouse liver mitochondria; assay: FCM analysis of PTP-dependant and PTP-independent MMP after pre-treatment with inhibitors; format: biochemical; conditions: for effect on alamethicin induced MMP (in words): 50 μM BA, 10 μM CsA or 10 μM Ruthenium red, then alamethicin 5 μg/ml
# Protocol: Mitochondrial Membrane Permeabilization (MMP) was induced by 1-30 μM Calcium (CaCl2, MERCK), and 5 μg/ml Alamethicin (SIGMA). Ruthenium Red (SIGMA) and the PTP inhibitor Cyclosporine A (CSA, BIOMOL) were added at 10 μM 4 minutes before the addition of the MMP-inducing agents. The uncoupler carbonyl cyanide m-chlorophenylhydrazone (mClCCP, SIGMA) was used at 20 μM to completely collapse A m.
# Fixed-time analyses were performed on mitochondrial samples containing 10 μg proteins in 100 μl of swelling buffer. Samples were submitted to MPP-inducing reagents for 30 min at 25° C. Samples were immediately analyzed by flow cytometry, and data from 20.000 mitochondria were recorded. The percentage of specific swelling determined on forward scatter was calculated as follows;
# Fixed-time detection of ΔΨm was performed on mitochondrial samples containing 10 μg proteins in 100 μl of swelling buffer. Samples were submitted to MPT-inducing drugs for 15 min at 25° C., and JC-1 was added at 800 nM for 15 min at 37° C. in the dark. Samples were immediately analyzed by flow cytometry, and data from 20.000 mitochondria (gated on FSC-SSC parameters) were recorded. This assay permitted to quantify the percentage of highly energized mitochondria (with both orange and green fluorescence) and depolarized mitochondria (with green fluorescence only) as depicted in part C2 of FIG. 1.
# Mitochondria were exposed 5 minutes to 50 μM BA, 10 μM Csa, or 10 μM Ruthenium red followed by 30 min treatment with Ca^2+ (30 μM) or alamethicin (5 μg/ml). Then, mitochondria were subjected to FCM analysis of ΔΨm (JC-1 orange fluorescence) and SSC (Mean+/−SD; n=3).
# [4] = test system: mammary adenocarcinoma MDA-MD-231 cells; assay: Apoptosis by FACS analysis (ΔΨm loss and cell membrane permeability), adenocarcinoma cells; format: cell-based, human; conditions: Adenocarcinoma MDA-MD231 cells; 24 hours incubation with 5 to 20 μM peptide
# Jurkat cells = assay: Apoptosis by FACS analysis (ΔΨm loss and cell membrane permeability), Jurkat cells; format: cell-based, human; conditions: 24 hours incubation with 5 to 20 μM peptide
# HeLa cells = assay: Apoptosis of HeLa cells by fluorescent microscopy or FACS; format: cell-based, human; conditions: 5 or 10 μM, 24 or 48 h
# Protocol: Characterization of apoptosis induced on cultured human cells by treatment with MMP inducing peptides. The example shown relates to peptide seq. ID no 3 […]. […] The peptide was then tested on cell: the HeLa cells in exponential growth phase were treated with peptide or mock treated, then analyzed by fluorescent microscopy or FACS to ascertain apoptosis.
# Caspase-3 activation was performed using a fluorescent inhibitor of caspase-3 (FLICA, FAM-DEVD-FMK) from the CaspaTag™ kit (Intergen). The loss of plasma membrane integrity occurring during apoptosis of HeLa cells was determined by 7-Amino Actinomycin D. (7-AAD) incorporation (SIGMA). […] 7-AAD was added to cells at 37° C. for 15 min. Cells were trypsinized, resuspended in PBS and immediately acquired on the FACSCalibur. FAM-DEVD-FMK related fluorescence was detected using the Fl-1 channel. 7-AAD fluorescence was collected in the Fl-3 channel (>650 nm).
# HeLa cells were stained by […] for 15 minutes and observe d using a DM IRB inverted fluorescence microscope (Leica).
# HeLa cells were incubated for 24 or 48 h with 5 or 10 μM of peptide Seq. ID no 3 or left untreated. A. Cells were then stained with JC-1 and Hoechst dyes. […] B. Fluorescence microscopy of the cells, after 24 hours incubation with or without 5 μM peptide and staining with JC-1 dye. […]
# [5] = test system: purified mouse liver mitochondria; format: biochemical; conditions: FIG. 9A
# Protocol: as §1
# Large amplitude swelling was determined with Ultrospec 3300 pro […] (Amersham Pharmacia Bioech, Cambridge, England) by measuring Absorbance at 545 nm (A545) (Bernardi et al., 1992). […] Basal absorbance was recorded for 4 minutes, MPP-inducing reagents were added to samples and large amplitude swelling was monitored by the decrease in absorbance for the following 16 minutes. Data were recorded using the Data capture software (Excel, Uppsala, Sweden). […] Percentages of specific swelling were calculated as follows: (ACa2+−AReagent)×100/(ACa2+−Ainit) were ACa2+, AReagent and Ainit correspond to the absorbance value obtained for CaCl2-treated, reagent-treated and pre-treated mitochondria respectively.
# isolated mitochondria = assay: Cytochrome C release from isolated mitochondria by western blot on the supernatant; format: biochemical, mouse; conditions: 10 μM peptide, 30 minutes; FIG. 9B
# Protocol: B. Cytochrome C release: untreated mitochondria (1), or treated with 5 μM Alamethicin (2) or 10 μM peptide seq. ID No 2 during 30 minutes were assayed for cytochrome C release by western blot on the supernatant.
# [6] = 50 μM BA or 10 μM CsA 5 min, then 30 μM Ca2+ 30 min
molecule,measurement,setting,value
"N#CC(C#N)=NNc1cccc(Cl)c1 [CCCP, carbonyl cyanide meta-chlorophenylhydrazone]",changes of mitochondrial size (FSC) and structure (SSC) (in words),[1],low but significant granularity (SSC) decrease without detectable size (FSC) changes
same,changes of JC-1 orange fluorescence (ΔΨm) (in words),[2],rapid decrease in JC-1 orange fluorescence
[Ca+2] [Calcium],changes of mitochondrial size (FSC) and structure (SSC) (in words),[1],dose-dependent SSC decrease and FSC increase
same,changes of JC-1 orange fluorescence (ΔΨm) (in words),[2],decrease in JC-1 orange fluorescence
N.N.N.N.N.N.N.N.N.N.N.N.N.N.[Cl-].[Cl-].[Cl-].[Cl-].[Cl-].[Cl-].[O-2].[O-2].[Ru+3].[Ru+3].[Ru+4] [Ruthenium red],inhibition of Ca2+ induced SSC decrease,"[3]; 10 μM Ruthenium red 5 min, then 30 μM Ca2+ 30 min",80%
same,inhibition of Ca2+ induced ΔΨm loss,"[3]; 10 μM Ruthenium red 5 min, then 30 μM Ca2+ 30 min, JC-1 orange fluorescence",80%
same,effect on alamethicin induced MMP (in words),[3],not affected
CC(=O)NC(C)(C)C(=O)N1CCC[C@H]1C(=O)NC(C)(C)C(=O)N[C@@H](C)C(=O)NC(C)(C)C(=O)N[C@@H](C)C(=O)N[C@@H](CCC(N)=O)C(=O)NC(C)(C)C(=O)N[C@H](C(=O)NC(C)(C)C(=O)NCC(=O)N[C@@H](CC(C)C)C(=O)NC(C)(C)C(=O)N1CCC[C@H]1C(=O)N[C@H](C(=O)NC(C)(C)C(=O)NC(C)(C)C(=O)N[C@@H](CCC(=O)O)C(=O)N[C@@H](CCC(N)=O)C(=O)N[C@H](CO)Cc1ccccc1)C(C)C)C(C)C [alamethicin] (Ac-[Aib]P[Aib]A[Aib]AQ[Aib]V[Aib]GL[Aib]PV[Aib][Aib]EQ[Phe(ol)]),changes of mitochondrial size (FSC) and structure (SSC) (in words),[1],simultaneous FSC increase and SSC decrease
same,changes of JC-1 orange fluorescence (ΔΨm) (in words),[2],decrease in JC-1 orange fluorescence
CO[C@H](C/C=C\C=C\CC/C=C/C[C@H](C)/C=C/C(=C\C(=O)O)CC(=O)O)/C(C)=C\C=C(/C)C(=O)O [bongkrekic acid],effect on Ca2+ induced SSC decrease (in words),[3]; [6],partly affect
same,effect on Ca2+ induced ΔΨm loss (in words),[3]; [6],strongly reduces
same,effect on alamethicin induced MMP (in words),[3],not affected
EHWSYWLRPG-GGGGS,% of apoptotic cells,[4],7%
same,induction of MMP / activity on isolated mitochondria (in words),[1],not active on mitochondria
same,% of apoptotic cells,Jurkat cells,8%
EHWSYWLRPGGGGGSLLFIHFRIGCRHSRIG [SEQ ID N^o 11],% of apoptotic cells,[4],92%
same,% of apoptotic cells,Jurkat cells,18%
GG*CRGDMFG*CG,induction of MMP / activity on isolated mitochondria (in words),[1],not found inducing MMP
RKKRRQRRRCGGLANKKGAWLDSTKATRYLVKTESWILRN [SEQ ID N^o 4],apoptosis of HeLa cells (in words),HeLa cells,mitochondrio-toxic activity
RKKRRQRRRCGGLETRTETWMSSEGAWKQIQKVETWALRH [SEQ ID N^o 3],apoptosis of HeLa cells (in words),HeLa cells,induction of apoptosis in a dose and time related effect
same,specific swelling of isolated mitochondria (in words),[5],dose-dependant specific swelling
same,release of Cytochrome C from isolated mitochondria,isolated mitochondria,release of Cytochrome C
